What was measured:
Experiment in all cases: competitive isoTOP-ABPP
Type in all cases: binding
[1] = molecular target: T1, CNOT4 CCR4-NOT transcription complex subunit 4 (Homo sapiens, UniProt O95628)
T1 construct: isoTOP-ABPP experiments performed in cell lysates (in vitro); endogenous in cells; host or cells: MDA-MB-231 soluble lysate
T1 sequence (O95628 1-575): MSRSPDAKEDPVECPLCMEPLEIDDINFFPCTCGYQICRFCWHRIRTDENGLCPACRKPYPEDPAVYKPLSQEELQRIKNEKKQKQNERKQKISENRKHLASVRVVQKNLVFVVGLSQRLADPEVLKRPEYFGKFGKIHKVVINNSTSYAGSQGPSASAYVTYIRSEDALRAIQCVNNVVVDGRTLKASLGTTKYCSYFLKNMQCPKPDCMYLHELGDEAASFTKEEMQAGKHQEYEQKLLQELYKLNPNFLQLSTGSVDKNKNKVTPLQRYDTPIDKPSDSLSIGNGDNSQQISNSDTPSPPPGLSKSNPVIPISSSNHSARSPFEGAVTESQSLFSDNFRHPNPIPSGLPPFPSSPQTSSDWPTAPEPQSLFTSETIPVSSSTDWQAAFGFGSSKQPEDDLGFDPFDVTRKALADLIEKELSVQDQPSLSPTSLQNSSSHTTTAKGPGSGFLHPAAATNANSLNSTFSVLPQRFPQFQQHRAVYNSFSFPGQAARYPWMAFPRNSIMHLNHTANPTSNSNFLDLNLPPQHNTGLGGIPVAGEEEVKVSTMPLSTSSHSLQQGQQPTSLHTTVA
Summary of the method: (§1)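 Probe: STP-alkyne, 0.1 mM, 1 h RT, after fragment pretreatment of lysate (esters 50 μM; guanidinylators 100 μM). Tags: light = compound, heavy = DMSO, via CuAAC. Replicates averaged if SD <60% of mean; otherwise lowest ratio used when any R <4.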

[2] = molecular target: T2, MTOR Serine/threonine-protein kinase mTOR (Homo sapiens, UniProt P42345)
T2 construct: isoTOP-ABPP experiments performed in cell lysates (in vitro); endogenous in cells; host or cells: soluble proteome of human cancer cell lines (MDA-MB-231; Ramos and Jurkat also prepared)
Summary of the method: as §1

[3] = molecular target: T3, PFKM 6-phosphofructokinase, muscle type (Homo sapiens, UniProt P08237)
T3 construct: isoTOP-ABPP experiments performed in cell lysates (in vitro); endogenous in cells; host or cells: MDA-MB-231 soluble lysate
T3 sequence (P08237 1-780): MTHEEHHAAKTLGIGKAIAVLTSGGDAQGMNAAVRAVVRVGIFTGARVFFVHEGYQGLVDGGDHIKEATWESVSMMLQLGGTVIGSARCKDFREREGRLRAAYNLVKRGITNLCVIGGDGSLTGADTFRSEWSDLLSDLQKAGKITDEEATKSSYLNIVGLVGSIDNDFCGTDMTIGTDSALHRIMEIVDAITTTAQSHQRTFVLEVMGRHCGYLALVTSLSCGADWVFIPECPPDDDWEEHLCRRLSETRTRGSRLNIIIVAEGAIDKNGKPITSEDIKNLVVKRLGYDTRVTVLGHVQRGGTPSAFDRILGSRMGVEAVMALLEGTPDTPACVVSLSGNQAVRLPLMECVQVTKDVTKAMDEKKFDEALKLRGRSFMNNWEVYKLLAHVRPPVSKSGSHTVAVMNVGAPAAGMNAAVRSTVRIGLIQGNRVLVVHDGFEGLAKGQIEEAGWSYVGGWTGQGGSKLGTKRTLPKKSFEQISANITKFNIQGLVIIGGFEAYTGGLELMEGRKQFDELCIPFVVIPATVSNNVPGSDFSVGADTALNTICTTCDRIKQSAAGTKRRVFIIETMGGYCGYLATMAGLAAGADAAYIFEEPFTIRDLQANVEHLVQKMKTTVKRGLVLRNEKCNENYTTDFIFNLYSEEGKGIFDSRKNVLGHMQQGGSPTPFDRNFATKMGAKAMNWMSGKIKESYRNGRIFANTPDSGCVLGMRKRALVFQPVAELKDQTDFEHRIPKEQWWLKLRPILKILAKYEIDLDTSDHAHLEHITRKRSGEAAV
Summary of the method: as §1

| SMILES | isoTOP-ABPP ratio, lysine O95628_K134 ([1]; 50 uM_231_sol_in vitro) | isoTOP-ABPP ratio, lysine P42345_K2066 ([2]; 50 uM_231_sol_in vitro) | isoTOP-ABPP ratio, lysine P08237_K678 ([3]; 50 uM_231_sol_in vitro) | also measured |
| --- | --- | --- | --- | --- |
| CC(=O)Oc1ccc([N+](=O)[O-])cc1[N+](=O)[O-] [fragment 43, 2,4-Dinitrophenyl acetate] |  |  |  | isoTOP-ABPP ratio (R) at liganded lysine O95628_K134 ([1]; 50 uM, in vitro, sol, 231): 1.3; isoTOP-ABPP ratio (R) at liganded lysine P42345_K2066 ([2]; 50 uM, in vitro, sol, 231): 1.6; isoTOP-ABPP ratio (R) at liganded lysine P08237_K678 ([3]; 50 uM, in vitro, sol, 231): 1.3 |
| N#Cc1ccc(C(=O)Oc2ccc([N+](=O)[O-])cc2[N+](=O)[O-])cc1 [fragment 44, 2,4-Dinitrophenyl 4-cyanobenzoate] | 2.0 | 1.7 | 1.9 |  |
| O=C(CCc1ccc2c(c1)OCO2)Oc1ccc([N+](=O)[O-])cc1[N+](=O)[O-] [fragment 45, 2,4-Dinitrophenyl 3-(benzo[d][1,3]dioxol-5-yl)propanoate] | 2.8 | 1.1 | 4.8 |  |
| O=C(ON1C(=O)CCC1=O)c1cc(C(F)(F)F)cc(C(F)(F)F)c1 [fragment 46, 3,5-Bis(trifluoromethyl)benzoic acid NHS ester] | 5.2 | 1.5 | 1.3 |  |
| O=C(Oc1c(F)c(F)c(C(F)(F)F)c(F)c1F)c1cc(C(F)(F)F)cc(C(F)(F)F)c1 [fragment 47, 2,3,5,6-Tetrafluoro-4-(trifluoromethyl)phenyl 3,5-bis(trifluoromethyl)benzoate] | 1.5 | 1.1 | 0.8 |  |
| COC(=O)NC(=NC(=O)OCC1c2ccccc2-c2ccccc21)n1cccn1 [fragment 49, N-Methoxycarbonyl-N′-9-fluorenylmethoxycarbonyl-pyrazole-1-carboxamidine] |  |  |  | isoTOP-ABPP ratio, lysine O95628_K134 ([1]; 100 uM_231_sol_in vitro): 1.4; isoTOP-ABPP ratio, lysine P42345_K2066 ([2]; 100 uM_231_sol_in vitro): 1.0; isoTOP-ABPP ratio, lysine P08237_K678 ([3]; 100 uM_231_sol_in vitro): 5.4 |
| CC(C)(C)OC(=O)N=C(NC(=O)OC(C)(C)C)n1cccn1 [fragment 50, reference compound] |  |  |  | isoTOP-ABPP ratio, lysine O95628_K134 ([1]; 100 uM_231_sol_in vitro): 1.7; isoTOP-ABPP ratio, lysine P42345_K2066 ([2]; 100 uM_231_sol_in vitro): 1.4; isoTOP-ABPP ratio, lysine P08237_K678 ([3]; 100 uM_231_sol_in vitro): 20.0 |
| NC(=O)c1cc(C(F)(F)F)cc(C(F)(F)F)c1 [fragment 51, reference compound] | 0.9 | 0.8 | 0.8 |  |

From patent US20210255193A1, “LYSINE REACTIVE PROBES AND USES THEREOF” (The Scripps Research Institute, priority 2017, published 2021)
